Experimental data: publication PMC11062899, “De novo development of small cyclic peptides that are orally bioavailable” (Nature Chemical Biology, 2023)
Several values for one entry are separate records, joined by “and”; a condition that tells them apart may be missing. Identical values can stand only once.

Legend:
porcine pancreatin = experiment: Peptide stability in simulated intestinal fluid (SIF); format: in vitro ADME; conditions: after 8 h vs 0 h (TIC); average of R1-R3
Protocol: (§1) Simulated gastric and intestinal fluids were prepared according to the States Pharmacopeia specifications (Test Solutions, United States Pharmacopeia 35, NF 30, 2012). SGF: 0.2 g of sodium chloride was dissolved in 50 ml of water, and the pH was adjusted to 1.2 by addition of 0.7 ml of 10 M hydrochloric acid. Then, 0.32 g of porcine pepsin (Sigma-Aldrich, P7125) was dissolved under gentle agitation, and the volume was filled up to 100 ml with Milli-Q water. SIF: 0.68 g of monobasic potassium phosphate was dissolved in 25 ml of Milli-Q water, and the pH was adjusted to 6.8 by adding 7.7 ml of a 0.2 M sodium hydroxide solution. Next, 1 g of porcine pancreatin (Sigma-Aldrich, P3292) was added under gentle agitation, and the volume was adjusted to 100 ml with Milli-Q water to afford a fine suspension. To test the stability in simulated gastrointestinal fluids, 396 μl of SGF or SIF was pre-heated at 37 °C for 10 min, and 4 μl of a 1 mM peptide solution in DMSO was added. […] Supernatant was analyzed by LC–MS to measure the peptide concentrations at the different timepoints. Residual peptide was calculated by normalizing the concentrations measured at T1 to T0.

[1] = as above; format: in vitro ADME, porcine; conditions: simulated gi fluid; 8 h, 37 °C, pH 6.8; read-out: Proteolytic stability: SIF (8 h) % remaining
Protocol: as §1

porcine pepsin = biological target: T1, porcine pepsin (Sus scrofa, UniProt P00791); experiment: Peptide stability in simulated gastric fluid (SGF); format: in vitro ADME
T1 construct: 0.32 g of porcine pepsin (Sigma-Aldrich, P7125) was dissolved under gentle agitation; purchased Sigma-Aldrich P7125
Protocol: as §1

human α-thrombin = human α-thrombin (Homo sapiens, UniProt P00734); experiment: Protease inhibition, Ki for human α-thrombin (fluorogenic substrate Z-Gly-Gly-Arg-AMC); format: biochemical; conditions: replicates R1-R3
Procedure, shortened: (§2)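 Ki derived through Cheng–Prusoff from IC50s (four-parameter logistic fit) against activity of peptide-free controls. Product fluorescence was read every 3 min over 30 min at 25 °C, substrate Z-Gly-Gly-Arg-AMC at 50 μM. Enzyme was 2 nM human or 3 nM rat α-thrombin, pH 7.4 buffer.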

[2] = Passive artificial membrane permeability (PAMPA)
[3] = Metabolic stability in rat liver microsomes (RLMs); conditions: rat, microsomes
rat α-thrombin = biological target: T2, rat α-thrombin (Rattus norvegicus, UniProt P18292); experiment: Protease inhibition, Ki for rat α-thrombin (fluorogenic substrate Z-Gly-Gly-Arg-AMC); format: biochemical; conditions: replicates R1-R3
T2 construct: rat α-thrombin (Molecular Innovations) were used at final concentrations of 2 nM and 3 nM; purchased Molecular Innovations
Procedure, shortened: as §2

[4] = peptide 1.33E+02 uM, slope of proteolytic substrate cleavage over time

T1 sequence (P00791 60-385): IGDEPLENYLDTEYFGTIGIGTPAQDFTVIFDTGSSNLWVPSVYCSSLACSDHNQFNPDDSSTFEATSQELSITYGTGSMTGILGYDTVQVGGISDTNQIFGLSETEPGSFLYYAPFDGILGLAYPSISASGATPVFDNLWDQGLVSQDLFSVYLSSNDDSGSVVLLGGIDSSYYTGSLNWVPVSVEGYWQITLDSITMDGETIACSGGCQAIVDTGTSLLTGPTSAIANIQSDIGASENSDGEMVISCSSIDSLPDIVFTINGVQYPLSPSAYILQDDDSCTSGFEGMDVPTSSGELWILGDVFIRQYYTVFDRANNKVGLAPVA

O=C1CC2CCN(CC2)C(=O)[C@H](Cc2ccccc2)NC(=O)[C@@H](NC(=O)c2ccc(Cl)s2)CSCCS(=O)(=O)CCSCCN1 [compound 13]
SIF stability, Residual peptide Average (porcine pancreatin): 95.61
remaining at 8 h [1]: 96 ± 11%
SGF stability, Residual peptide Average (porcine pepsin; after 8 h vs 0 h (TIC), average of R1-R3): 103.72
SGF stability, Residual peptide (porcine pepsin; after 8 h vs 0 h (TIC), single replicates R1-R3): 109.74 and 107.42 and 94.00
remaining at 8 h (porcine pepsin; simulated gi fluid, 8 h, 37 °C, pH 1.2, read-out: Proteolytic stability: SGF (8 h) % remaining): 104 ± 8%
Human alpha thrombin inhibition, slope normalized to DMSO (human α-thrombin; peptide 1.02E-03 uM): 98.5 and 92.4 and 98.3
Human alpha thrombin inhibition, slope normalized to DMSO (human α-thrombin; peptide 1.04E+00 uM): 56.0 and 56.7 and 59.7
Human alpha thrombin inhibition, slope normalized to DMSO (human α-thrombin; peptide 1.27E-04 uM): 96.6 and 96.4 and 97.8
Human alpha thrombin inhibition, slope normalized to DMSO (human α-thrombin; peptide 1.30E-01 uM): 89.4 and 79.1 and 90.0
Human alpha thrombin inhibition, slope normalized to DMSO (human α-thrombin; [4]): 3.8 and 5.6 and 7.2
Human alpha thrombin inhibition, slope normalized to DMSO (human α-thrombin; peptide 1.63E-02 uM): 96.8 and 95.2 and 98.6
Human alpha thrombin inhibition, slope normalized to DMSO (human α-thrombin; peptide 1.67E+01 uM): 11.2 and 13.1 and 6.6
Human alpha thrombin inhibition, slope normalized to DMSO (human α-thrombin; peptide 2.03E-03 uM): 96.1 and 91.3 and 98.5
Human alpha thrombin inhibition, slope normalized to DMSO (human α-thrombin; peptide 2.08E+00 uM): 44.5 and 43.9 and 46.9
Human alpha thrombin inhibition, slope normalized to DMSO (human α-thrombin; peptide 2.54E-04 uM): 98.7 and 101.9 and 92.3
Human alpha thrombin inhibition, slope normalized to DMSO (human α-thrombin; peptide 2.60E-01 uM): 82.9 and 76.8 and 85.2
Human alpha thrombin inhibition, slope normalized to DMSO (human α-thrombin; peptide 3.18E-05 uM): 98.4 and 99.1 and 103.6
Human alpha thrombin inhibition, slope normalized to DMSO (human α-thrombin; peptide 3.26E-02 uM): 83.8 and 90.0 (2×)
Human alpha thrombin inhibition, slope normalized to DMSO (human α-thrombin; peptide 3.33E+01 uM): 7.3 and 17.9 and 6.7
Human alpha thrombin inhibition, slope normalized to DMSO (human α-thrombin; peptide 4.07E-03 uM): 97.5 and 98.3 and 97.0
Human alpha thrombin inhibition, slope normalized to DMSO (human α-thrombin; peptide 4.17E+00 uM): 31.6 and 18.4 and 32.8
Human alpha thrombin inhibition, slope normalized to DMSO (human α-thrombin; peptide 5.09E-04 uM): 94.9 and 94.8 and 96.2
Human alpha thrombin inhibition, slope normalized to DMSO (human α-thrombin; peptide 5.21E-01 uM): 73.3 and 69.5 and 73.8
Human alpha thrombin inhibition, slope normalized to DMSO (human α-thrombin; peptide 6.36E-05 uM): 99.0 and 95.7 and 105.1
Human alpha thrombin inhibition, slope normalized to DMSO (human α-thrombin; peptide 6.51E-02 uM): 92.9 and 89.5 and 93.7
Human alpha thrombin inhibition, slope normalized to DMSO (human α-thrombin; peptide 6.67E+01 uM): 5.0 (2×) and 5.6
Human alpha thrombin inhibition, slope normalized to DMSO (human α-thrombin; peptide 8.14E-03 uM): 98.2 and 94.5 and 89.6
Human alpha thrombin inhibition, slope normalized to DMSO (human α-thrombin; peptide 8.33E+00 uM): 20.4 and 21.3 and 21.0
PAMPA permeability: % permeability ([2]; 50 μM, 12–18 h, acceptor concentration relative to equilibrium): 2.0 ± 1.7%
Papp at 50 μM ([2]; PAMPA, pH 7.4): 0.107 ×10⁻⁶ cm/s
Permeability% Average ([2]; PAMPA, average of R1-R3): 2.0%
Permeability% R1 ([2]; PAMPA, replicate R1, TIC of top well sample relative to sample at theoretical equilibrium): 3.95%
Permeability% R3 ([2]; PAMPA, replicate R3, TIC of top well sample relative to sample at theoretical equilibrium): 1.45%
microsomal CLint ([3]; CL (ul/min/mg protein) R1, RLM CL, replicate R1): 187 µL/min/mg
microsomal CLint ([3]; CL (ul/min/mg protein) R2, RLM CL, replicate R2): 117 µL/min/mg
microsomal CLint ([3]; CL (ul/min/mg protein) R3, RLM CL, replicate R3): 148 µL/min/mg
half-life ([3]; Half Life (min) R1, RLM metabolic stability, replicate R1, 0-60 min): 7.4 min
half-life ([3]; Half Life (min) R2, RLM metabolic stability, replicate R2, 0-60 min): 11.9 min
half-life ([3]; Half Life (min) R3, RLM metabolic stability, replicate R3, 0-60 min): 9.38 min
half-life ([3]; Metabolic stability: Half life T1/2 (min), RLMs, mean and SD, three measurements): 9.5 ± 1.8 min
microsomal CLint ([3]; Metabolic stability: RLM CL (ul/min/mg), RLMs, mean and SD, three measurements): 151 ± 29 µL/min/mg
microsomal CLint ([3]; Metabolic stability: RLM CL Average, summary table, average of R1-R3): 151 µL/min/mg
microsomal CLint ([3]; Metabolic stability: RLM CL R1, summary table, rounded, replicate R1): 187 µL/min/mg
microsomal CLint ([3]; Metabolic stability: RLM CL R2, summary table, rounded, replicate R2): 117 µL/min/mg
microsomal CLint ([3]; Metabolic stability: RLM CL R3, summary table, rounded, replicate R3): 148 µL/min/mg
Rat alpha thrombin inhibition, slope normalized to DMSO (rat α-thrombin; [4]): 2.5 and 3.0 and 16.1
Rat alpha thrombin inhibition, slope normalized to DMSO (rat α-thrombin; peptide 1.67E+01 uM): 7.6 and 7.2 and 19.3
Rat alpha thrombin inhibition, slope normalized to DMSO (rat α-thrombin; peptide 2.08E+00 uM): 36.1 and 33.7 and 41.7
Slope normalized to DMSO (proteolytic substrate cleavage over time) (rat α-thrombin; peptide 2.54E-04 uM): 99.5 and 98.8
Slope normalized to DMSO (proteolytic substrate cleavage over time) (rat α-thrombin; peptide 3.18E-05 uM): 98.9
Rat alpha thrombin inhibition, slope normalized to DMSO (rat α-thrombin; peptide 3.33E+01 uM): 4.5 and 3.9 and 18.0
Rat alpha thrombin inhibition, slope normalized to DMSO (rat α-thrombin; peptide 4.17E+00 uM): 21.1 and 20.6 and 33.2
Slope normalized to DMSO (proteolytic substrate cleavage over time) (rat α-thrombin; peptide 6.36E-05 uM): 99.5
Slope normalized to DMSO (proteolytic substrate cleavage over time) (rat α-thrombin; peptide 6.51E-02 uM): 99.3
Rat alpha thrombin inhibition, slope normalized to DMSO (rat α-thrombin; peptide 6.67E+01 uM): 2.7 and 2.5 and 17.0
Slope normalized to DMSO (proteolytic substrate cleavage over time) (rat α-thrombin; peptide 8.14E-03 uM): 99.8 and 99.9
Rat alpha thrombin inhibition, slope normalized to DMSO (rat α-thrombin; peptide 8.33E+00 uM): 14.3 and 13.8 and 26.6
